# From patent US20250074920A1, “MACROCYCLIC COMPOUNDS AND USE AS KINASE INHIBITORS” (BLOSSOMHILL THERAPEUTICS, INC., priority 2022, published 2025)
# Tests used:
# Test in all cases: KINOMEscan kinase binding assay
# [1] = system: TNK1; conditions: at 1 μM
# How it was run: (§1)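 Immobilized-ligand competition, qPCR-quantified. Kinase sources: T7 phage lysates from BL21-type E. coli, or HEK-293 expression plus DNA tag. Results expressed as % Ctrl (lower = stronger binding) and as Kd from capture versus concentration curves.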
# [2] = system: CSF1R; conditions: at 1 μM
# How it was run: as §1
# [3] = system: FGFR3(G697C); conditions: at 1 μM
# How it was run: as §1
# [4] = system: MET; conditions: at 1 μM
# How it was run: as §1
# [5] = system: KIT; conditions: at 1 μM
# How it was run: as §1
# [6] = system: JAK2(JH1domain-catalytic)
# How it was run: (§2)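 We measured how much kinase stayed bound to an immobilized small-molecule ligand when test compound was present. Binding ran at room temperature for 1 h, and the kinase eluted from the beads was counted by qPCR. Lower % Ctrl indicated tighter compound binding.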
# [7] = system: ABL1(F317I)-nonphosphorylated; conditions: at 1 μM
# How it was run: as §1
# [8] = system: KIT(D816V); conditions: at 1 μM
# How it was run: as §1
# [9] = system: FER; conditions: at 1 μM
# How it was run: as §1
# [10] = system: CSK; conditions: at 1 μM
# How it was run: as §1
# [11] = system: KIT(A829P); conditions: at 1 μM
# How it was run: as §1
# [12] = system: ABL1(E255K)-phosphorylated; conditions: at 1 μM
# How it was run: as §1
# [13] = system: TYK2(JH1domain-catalytic)
# How it was run: as §2
# [14] = system: ERBB4; conditions: at 1 μM
# How it was run: as §1
# [15] = system: TNK2; conditions: at 1 μM
# How it was run: as §1
# [16] = system: EGFR(L747-S752del, P753S); conditions: at 1 μM
# How it was run: as §1
# [17] = system: BRK; conditions: at 1 μM
# How it was run: as §1
# [18] = system: ABL1(Y253F)-phosphorylated; conditions: at 1 μM
# How it was run: as §1
# [19] = system: IGF1R; conditions: at 1 μM
# How it was run: as §1
# [20] = system: JAK3(JH1domain-catalytic)
# How it was run: as §2
# [21] = system: TYK2(JH2domain-pseudokinase)
# How it was run: as §2
# [22] = system: ABL2; conditions: at 1 μM
# How it was run: as §1
# [23] = system: INSRR; conditions: at 1 μM
# How it was run: as §1
# [24] = system: FGFR3; conditions: at 1 μM
# How it was run: as §1
# [25] = system: EGFR(G719C); conditions: at 1 μM
# How it was run: as §1
# [26] = system: TIE2; conditions: at 1 μM
# How it was run: as §1
# [27] = system: ABL1(T315I)-nonphosphorylated; conditions: at 1 μM
# How it was run: as §1
# [28] = system: PYK2; conditions: at 1 μM
# How it was run: as §1
# [29] = system: EGFR(S752-1759del); conditions: at 1 μM
# How it was run: as §2
# [30] = system: KIT(D816H); conditions: at 1 μM
# How it was run: as §1
# [31] = system: HCK; conditions: at 1 μM
# How it was run: as §1
# [32] = system: TIE1; conditions: at 1 μM
# How it was run: as §1
# [33] = system: EGFR; conditions: at 1 μM
# How it was run: as §1
# [34] = system: ABL1(M351T)-phosphorylated; conditions: at 1 μM
# How it was run: as §1
# [35] = system: FES; conditions: at 1 μM
# How it was run: as §1
# [36] = system: ALK(L1196M); conditions: at 1 μM
# How it was run: as §1
# [37] = system: RET(M918T); conditions: at 1 μM
# How it was run: as §1
# [38] = system: BMX; conditions: at 1 μM
# How it was run: as §1
smiles,measurement,setting,value
"C[C@@H]1COCc2nn(C)cc2-c2cc(Cl)c3c(c2)/C(=C/c2[nH]ccc2C(=O)N1)C(=O)N3 [Cpd. 4, [3a(4)Z,10R]-20-chloro-10,15-dimethyl-10,11,13,15-tetrahydro-2H-1,17-(ethanediylidene)pyrazolo[4,3-m]dipyrrolo[3,2-f:3′,4′-i][1,4]oxazacyclopentadecine-3,8(5H,9H)-dione]",% Ctrl,[1],94%
same,% Ctrl,[2],92%
same,% Ctrl,[3],79%
same,% Ctrl,[4],98%
same,% Ctrl,[5],100%
same,% Ctrl,"[6]; JAK2(JH1domain-catalytic), at 1 μM",57%
same,Kd,[6]; read-out: JAK2(JH1 domain-catalytic) Kd,1800 nM
same,% Ctrl,[7],95%
same,% Ctrl,[8],100%
same,% Ctrl,[9],68%
same,% Ctrl,[10],100%
same,% Ctrl,[11],92%
same,% Ctrl,[12],94%
same,% Ctrl,"[13]; TYK2(JH1domain-catalytic), at 1 μM",48%
same,Kd,[13]; read-out: TYK2(JH1 domain-catalytic) Kd,1500 nM
same,% Ctrl,[14],100%
same,% Ctrl,[15],100%
same,% Ctrl,[16],90%
same,% Ctrl,[17],83%
same,% Ctrl,[18],79%
same,% Ctrl,[19],94%
same,% Ctrl,"[20]; JAK3(JH1domain-catalytic), at 1 μM",12%
same,Kd,[20]; read-out: JAK3(JH1 domain-catalytic) Kd,59 nM
same,% Ctrl,"[21]; TYK2(JH2domain-pseudokinase), at 1 μM",0.2%
same,Kd,[21]; read-out: TYK2(JH2 domain-pseudokinase) Kd,1.9 nM
same,% Ctrl,[22],97%
same,% Ctrl,[23],91%
same,% Ctrl,[24],87%
same,% Ctrl,[25],93%
same,% Ctrl,[26],91%
same,% Ctrl,[27],100%
same,% Ctrl,[28],92%
same,% Ctrl,[29],93%
same,% Ctrl,[30],80%
same,% Ctrl,[31],100%
same,% Ctrl,[32],84%
same,% Ctrl,[33],82%
same,% Ctrl,[34],94%
same,% Ctrl,[35],100%
same,% Ctrl,[36],94%
same,% Ctrl,[37],98%
same,% Ctrl,[38],93%
